Read-outs that look alike come from different tables or passages of the source.
What was measured:
[1] = tested on: Fusarium culmorum; assay: Synergistic mixtures, microtiter test, Fusarium culmorum (Use Example 27); type: cell-based; details: single compound
[2] = tested on: Phakopsora pachyrhizi; assay: Comparative greenhouse test, curative action against soybean rust Phakopsora pachyrhizi (Use Example 22); type: in vivo; details: curative spray on soybean, untreated control 100
Method: The active compounds were formulated separately or together as a stock solution comprising 25 mg of active compound which was made up to 10 ml using a mixture of acetone and/or dimethyl sulfoxide (DMSO) and the emulsifier Wettol EM 31 (wetting agent having emulsifying and dispersing action based on ethoxylated alkylphenols) in a volume ratio of solvent/emulsifier of 99 to 1. This solution was then made up to 100 ml using water. This stock solution was diluted with the solvent/emulsifier/water mixture described to the active compound concentration given below.
Leaves of potted soybean seedlings were dusted with a suspension of spores of rust of soybean (Phakopsora pachyrhizi). The plants were then placed in a chamber with high atmospheric humidity (90 to 95%), at 23 to 27° C., for 24 hours. During this time, the spores germinated and the germinal tubes penetrated into the leaf tissue. The next day, the infected plants were sprayed to runoff point with an aqueous suspension having the concentration of active compound stated in table 4 (250 ppm). After drying of the sprayed suspension, the test plants were returned to the greenhouse and cultivated at temperatures between 23 and 27° C. and at 60 to 80% relative atmospheric humidity for a further 14 days. The extent of the rust development on the leaves was then determined visually.

[3] = tested on: Pyricularia oryzae; type: cell-based; details: single compound
[4] = tested on: Gaeumannomyces graminis; assay: Synergistic mixtures, microtiter test, Gaeumannomyces graminis (Use Example 30); type: cell-based; details: single compound
[5] = tested on: Colletotrichum truncatum; assay: Synergistic mixtures, microtiter test, Colletotrichum truncatum (Use Example 28); type: cell-based; details: single compound
[6] = tested on: Thielaviopsis basicola; assay: Synergistic mixtures, microtiter test, Thielaviopsis basicola (Use Example 31); type: cell-based; details: single compound
[7] = tested on: Puccinia recondita; assay: Synergistic mixtures, greenhouse, preventative control of brown rust on wheat caused by Puccinia recondita (Use Example 34); type: in vivo; details: single compound, untreated control 90% disease
Method: These percentages were converted into efficacies. An efficacy of 0 means that the growth level of the pathogens corresponds to that of the untreated control; an efficacy of 100 means that the pathogens were not growing.
The expected efficacies of active compound mixtures were determined using Colby's formula [R. S. Colby, Calculating synergistic and antagonistic responses of herbicide combinations, Weeds 15, 20-22 (1967)] and compared with the observed efficacies. E=x+y−x·y/100 Colby's formula • E expected efficacy, expressed in % of the untreated control, when using the mixture of the compounds A and B at the concentration a and b • x efficacy, expressed in % of the untreated control, when using compound A at a concentration of a • y efficacy, expressed in % of the untreated control, when using compound B at a concentration of b A) Microtiter Tests
The spray solutions were prepared in several steps:
The stock solution were prepared as follows: a mixture of acetone and/or dimethylsulfoxide and the wetting agent/emulsifier Wettol, which is based on ethoxylated alkylphenoles, in a relation (volume) solvent-emulsifier of 99 to 1 was added to 25 mg of the compound to give a total of 10 ml. Water was then added to total volume of 100 ml.
This stock solution was diluted with the described solvent-emulsifier-water mixture to the given concentration. The compounds pyraclostrobin, boscalid and epoxiconazole were used as commercial finished formulations and diluted with water to the stated concentration of the active compound.
The first two developed leaves of pot-grown wheat seedling were sprayed to run-off with an aqueous suspension, containing the concentration of active ingredient or their mixture as described below. The next day the plants were inoculated with spores of Puccinia recondita. To ensure the success the artificial inoculation, the plants were transferred to a humid chamber without light and a relative humidity of 95 to 99% and at temperatures between 20 and 24° C. for 24 h. Then, the plants were cultivated for 6 days in a greenhouse chamber at 20 to 24° C. and a relative humidity between 65 and 70%. The extent of fungal attack on the leaves was visually assessed as % diseased leaf area.

[8] = tested on: Pyrenophora teres; assay: Synergistic mixtures, microtiter test, net blotch pathogen Pyrenophora teres (Use Example 29); type: cell-based; details: single compound
[9] = tested on: Alternaria solani; assay: Synergistic mixtures, microtiter test, early blight pathogen Alternaria solani (Use Example 24); type: cell-based; details: single compound, 0.063 ppm
[10] = tested on: Septoria tritici; assay: Synergistic mixtures, microtiter test, leaf blotch pathogen Septoria tritici (Use Example 26); type: cell-based; details: single compound, 4 ppm
[11] = tested on: Fusarium oxysporum; details: single compound, 0.25 ppm
[12] = tested on: Phytophthora infestans; type: cell-based; details: single compound
[13] = tested on: Verticillium dahliae; details: single compound

## Cc1nccc(CNS(=O)(=O)c2ccc(Oc3ccccn3)cc2)c1C [Example 33]
[1]; 16 ppm
  Observed efficacy (%): 1%
[2]
  infection in [%] at 250 ppm: 5%
[3]; 0.25 ppm
  Observed efficacy (%): 38%
[4]; 0.063 ppm
  Observed efficacy (%): 4%
[4]; 0.25 ppm
  Observed efficacy (%): 21%
[5]; 4 ppm
  Observed efficacy (%): 24%
[6]; 16 ppm
  Observed efficacy (%): 9%
[7]; 16 ppm
  Observed efficacy (%): 33%
[8]; 0.25 ppm
  Observed efficacy (%): 0%
[9]
  Observed efficacy (%): 4%
[10]
  Observed efficacy (%): 22%

## COC(=O)N(OC)c1ccccc1COc1ccn(-c2ccc(Cl)cc2)n1 [Pyraclostrobin, reference compound]
[1]; 0.25 ppm
  Observed efficacy (%): 0%
[3]; 0.001 ppm
  Observed efficacy (%): 17%
[11]
  Observed efficacy (%): 0%
[4]; 0.00025 ppm
  Observed efficacy (%): 29%
[4]; 0.001 ppm
  Observed efficacy (%): 57%
[5]; 0.063 ppm
  Observed efficacy (%): 27%
[5]; 0.25 ppm
  Observed efficacy (%): 60%
[6]; 0.25 ppm
  Observed efficacy (%): 19%
[7]; 0.016 ppm
  Observed efficacy (%): 0%
[7]; 0.063 ppm
  Observed efficacy (%): 0%
[7]; 0.25 ppm
  Observed efficacy (%): 0%
[8]; 0.016 ppm
  Observed efficacy (%): 52%
[12]; 0.00025 ppm
  Observed efficacy (%): 8%

## Cc1nccc(CNS(=O)(=O)c2ccc(Oc3ccccc3)cc2)c1C [comparative example 2, reference compound]
[2]
  infection in [%] at 250 ppm: 100%

## Cc1cc(Oc2ccc(C(F)(F)F)cn2)ccc1S(=O)(=O)NCc1ccnc(C)c1C [Example 203]
[1]; 16 ppm
  Observed efficacy (%): 1%
[13]; 1 ppm
  Observed efficacy (%): 52%
[13]; 4 ppm
  Observed efficacy (%): 56%
[5]; 4 ppm
  Observed efficacy (%): 36%
[6]; 1 ppm
  Observed efficacy (%): 0%
[6]; 4 ppm
  Observed efficacy (%): 13%
[7]; 4 ppm
  Observed efficacy (%): 22%
[7]; 16 ppm
  Observed efficacy (%): 44%
[8]; 0.25 ppm
  Observed efficacy (%): 34%
[9]
  Observed efficacy (%): 0%
[10]
  Observed efficacy (%): 45%

## N#Cc1c(Cl)c(Cl)c(Cl)c(C#N)c1Cl [Chlorothalonil, reference compound]
[1]; 4 ppm
  Observed efficacy (%): 5%
[13]; 1 ppm
  Observed efficacy (%): 40%
[3]; 0.063 ppm
  Observed efficacy (%): 0%
[4]; 0.004 ppm
  Observed efficacy (%): 0%
[4]; 0.016 ppm
  Observed efficacy (%): 9%
[6]; 1 ppm
  Observed efficacy (%): 56%
[12]; 0.004 ppm
  Observed efficacy (%): 4%
[12]; 0.25 ppm
  Observed efficacy (%): 10%

## Cc1nccc(CNS(=O)(=O)c2ccc(Oc3ccc(Br)cn3)cc2)c1C [Example 71]
[1]; 16 ppm
  Observed efficacy (%): 1%
[13]; 4 ppm
  Observed efficacy (%): 55%
[4]; 0.063 ppm
  Observed efficacy (%): 52%
[5]; 4 ppm
  Observed efficacy (%): 29%
[6]; 1 ppm
  Observed efficacy (%): 9%
[6]; 16 ppm
  Observed efficacy (%): 56%
[7]; 16 ppm
  Observed efficacy (%): 0%
[8]; 0.25 ppm
  Observed efficacy (%): 20%
[9]
  Observed efficacy (%): 4%
[10]
  Observed efficacy (%): 43%

## COc1cc(CNS(=O)(=O)c2ccc(Oc3ncccc3C(F)(F)F)cc2)ccn1 [Example 13]
[1]; 16 ppm
  Observed efficacy (%): 2%
[4]; 0.016 ppm
  Observed efficacy (%): 6%
[4]; 0.063 ppm
  Observed efficacy (%): 31%
[5]; 4 ppm
  Observed efficacy (%): 26%
[8]; 0.063 ppm
  Observed efficacy (%): 19%
[10]
  Observed efficacy (%): 39%
[12]; 0.25 ppm
  Observed efficacy (%): 16%

## O=C(Nc1ccccc1-c1ccc(Cl)cc1)c1cccnc1Cl [Boscalid, reference compound]
[1]; 16 ppm
  Observed efficacy (%): 1%
[7]; 0.25 ppm
  Observed efficacy (%): 0%
[7]; 1 ppm
  Observed efficacy (%): 0%
[7]; 4 ppm
  Observed efficacy (%): 0%
[7]; 16 ppm
  Observed efficacy (%): 0%
[8]; 0.25 ppm
  Observed efficacy (%): 49%
[9]
  Observed efficacy (%): 23%
[12]; 0.016 ppm
  Observed efficacy (%): 5%

## O=S(=O)(NCc1ccncc1)c1ccc(Oc2ccc(C(F)(F)F)cn2)cc1 [Example 9]
[1]; 16 ppm
  Observed efficacy (%): 0%
[4]; 0.25 ppm
  Observed efficacy (%): 5%
[6]; 1 ppm
  Observed efficacy (%): 11%
[7]; 16 ppm
  Observed efficacy (%): 0%
[10]
  Observed efficacy (%): 2%
